This is an account of results in patent US20250144067A1, “PERSONALIZED STARVATION THERAPY FOR CANCER” (Faeth Therapeutics, Inc., priority 2021, published 2025).

Assay [1] concerns NCI-H292 lung cancer cells. As to the kind of experiment: FDA drug screening, complete media vs cholesterol-free media without statin (TABLE 1). The assay is classed as cell-based, human.
Assay [2] concerns NCI-H292 lung cancer cells. As to the kind of experiment: FDA drug screening, complete media vs cholesterol-free media with simvastatin (TABLE 2). The assay is classed as cell-based, human.
[3] abbreviates: Complete minus Cholesterol-free, greater than 0 enhanced anti-cancer activity, about 0 neutral, below 0 antagonist.
The mark [4] stands for this setting: NCI-H292 cells, FDA drug library screen, cholesterol-free media without statin.
[5] abbreviates: NCI-H292 cells, FDA drug library screen, complete media.
Where [6] appears, read: NCI-H292 cells, FDA library drug in cholesterol-free media with simvastatin 0.04 μM.
The mark [7] stands for this setting: NCI-H292 cells, FDA library drug in complete media.
The mark [8] stands for this setting: complete media vs cholesterol-free media + simvastatin (0.04 μM), >0 enhanced anti-cancer activity, about 0 neutral, <0 antagonist.
Where [9] appears, read: NCI-H292 cells, cholesterol-free media without statin.
The mark [10] stands for this setting: complete vs cholesterol-free media, greater than 0 enhanced anti-cancer activity, about 0 neutral, below 0 antagonists.
Setting [11] is: NCI-H292 cells, drug in cholesterol-free media with simvastatin 0.04 μM.
The mark [12] stands for this setting: NCI-H292 cells, drug in complete media.
Where [13] appears, read: Complete minus Cholesterol-free, >0 enhanced anti-cancer activity, about 0 neutral, <0 antagonist.
[14] abbreviates: NCI-H292 cells, cholesterol-free media without statin, FDA drug library screen.
The mark [15] stands for this setting: NCI-H292 cells, complete media, FDA drug library screen.
Where [16] appears, read: NCI-H292 cells, FDA drug library screen, cholesterol-free media with simvastatin 0.04 μM.
[17] abbreviates: complete media minus cholesterol-free media + simvastatin, >0 enhanced anti-cancer activity, about 0 neutral, <0 antagonist.
Setting [18] is: NCI-H292 cells, cholesterol-free media with simvastatin 0.04 μM, FDA drug library screen (TABLE 2).
The mark [19] stands for this setting: NCI-H292 cells, complete media, FDA drug library screen (TABLE 2).
The mark [20] stands for this setting: Complete minus Cholesterol-free, greater than 0 enhanced anti-cancer activity, about 0 neutral, below 0 antagonists.
[21] abbreviates: NCI-H292 cells in cholesterol-free media without statin.
The mark [22] stands for this setting: NCI-H292 cells in complete media.
[23] abbreviates: complete vs cholesterol-free media, >0 enhanced anti-cancer activity, about 0 neutral, <0 antagonist.

Structures can show the parent of a compound that is named as a salt. Where two headings read alike, the source gives them in different places.

On to `Cc1cccc(C(C)c2cnc[nH]2)c1C` (stereo not shown) [Medetomidine], for which the results for the Difference in assay [1] (setting [3]) and in assay [2] (setting [8]) were −0.10 and −0.28, respectively. Further, the Cholesterol-free in assay [1] (setting [4]) is listed as 1.034. Further, in assay [1] (setting [5]), the Complete is listed as 0.9342. For the same compound, in assay [2] (setting [6]), the “Cholesterol-free media + simvastatin (0.04 μM)” value amounted to 1.094. The “Complete Media” value in assay [2] (setting [7]) came to 0.8138.

`CC(C)c1cc2c(cc1S(=O)(=O)O)[C@@]1(C)CCC[C@@](C)(C(=O)O)[C@@H]1CC2` [Ecabet (sodium)] returned a Cholesterol-free in assay [1] (setting [9]) of 1.17. Further, the Complete in assay [1] (NCI-H292 cells, complete media) turned out to be 0.8018. In addition, the values for the Difference in assay [1] (setting [10]) and in assay [2] (setting [8]) were −0.37 and −0.21, respectively. Besides, the “Cholesterol-free media + simvastatin (0.04 μM)” value in assay [2] (setting [11]) is given as 1.124. For the same compound, the “Complete Media” value in assay [2] (setting [12]) amounted to 0.9102.

`Clc1ccc(CO/N=C(\Cn2ccnc2)c2ccc(Cl)cc2Cl)c(Cl)c1` [Oxiconazole nitrate]: the Difference in assay [1] (setting [13]) worked out at 0.00; in assay [2] (setting [17]), 0.76. In addition, the Cholesterol-free in assay [1] (setting [14]) turned out to be 0.7425. The compound also returned a Complete in assay [1] (setting [15]) of 0.7401. For the same compound, the “Cholesterol-free media + simvastatin (0.04 μM)” value in assay [2] (setting [16]) turned out to be 0.3071. The “Complete Media” value in assay [2] (setting [5]) was 1.067.

As for `CC1=NN(c2ccc(C)c(C)c2)C(=O)/C1=N\Nc1cccc(-c2cccc(C(=O)O)c2)c1O` [Eltrombopag], the figures for the Difference in assay [1] (setting [13]) and in assay [2] (setting [8]) were −0.30 and −0.14, respectively. The same compound returned a Cholesterol-free in assay [1] (setting [9]) of 1.47. For the same compound, the “Cholesterol-free media + simvastatin (0.04 μM)” value in assay [2] (setting [16]) stood at 1.011. The “Complete Media” value in assay [2] (setting [5]) is 0.868.

Turning to Gramicidin, the Difference is recorded as −0.14 in assay [1] (Complete minus Cholesterol-free, […]) and 0.00 in assay [2] (complete media minus cholesterol-free media + simvastatin (0.04 μM), […]). This compound also returned a Cholesterol-free in assay [1] (setting [4]) of 0.1906. This compound also had a Complete in assay [1] (setting [5]) of 0.04898. Also, the “Cholesterol-free media + simvastatin (0.04 μM)” value in assay [2] (setting [18]) was 0.2157. Also, the “Complete Media” value in assay [2] (setting [19]) is reported as 0.2144.

On to `Cc1cc(=O)[nH]c(=S)[nH]1` [Methylthiouracil], for which the Cholesterol-free in assay [1] (setting [9]) turned out to be 1.055. Moreover, in assay [1] (NCI-H292 cells, complete media), the Complete is recorded as 0.7083. Moreover, the Difference in assay [1] (setting [10]) is given as −0.35; in assay [2] (setting [8]) it was −0.21. The “Cholesterol-free media + simvastatin (0.04 μM)” value in assay [2] (setting [11]) is 1.089. Moreover, the “Complete Media” value in assay [2] (setting [12]) came out at 0.882.

For Asenapine (maleate), the Difference in assay [1] (setting [20]) is listed as −0.56; in assay [2] (setting [8]) it was −0.17. The Cholesterol-free in assay [1] (setting [21]) is listed as 1.49. Moreover, the Complete in assay [1] (setting [22]) is reported as 0.9322. Also, in assay [2] (setting [11]), the “Cholesterol-free media + simvastatin (0.04 μM)” value was 1.309. For the same compound, in assay [2] (setting [12]), the “Complete Media” value is recorded as 1.135.

On to `CN(C)CCN(Cc1ccccc1)c1ccccn1` [Tripelennamine (hydrochloride)], for which the results for the Difference in assay [1] (setting [3]) and in assay [2] (setting [8]) were −0.13 and −0.29, respectively. In assay [1] (setting [4]), this compound gave a Cholesterol-free of 1.185. The Complete in assay [1] (setting [5]) stood at 1.051. The “Cholesterol-free media + simvastatin (0.04 μM)” value in assay [2] (setting [6]) stood at 1.12. Moreover, the “Complete Media” value in assay [2] (setting [7]) was 0.8343.

In assay [1] (setting [14]), `CCOc1ccc(Cc2cc([C@]34OC[C@](CO)(O3)[C@@H](O)[C@H](O)[C@H]4O)ccc2Cl)cc1.O=C1CC[C@@H](C(=O)O)N1` [Ertugliflozin L-pyroglutamic acid] had a Cholesterol-free of 1.319. In assay [1] (setting [15]), this compound displayed a Complete of 1.576. The Difference in assay [1] (complete vs cholesterol-free media, […]) was 0.26; in assay [2] (complete media vs cholesterol-free media + simvastatin (0.04 μM), […]), −0.19. For the same compound, in assay [2] (setting [11]), the “Cholesterol-free media + simvastatin (0.04 μM)” value came to 1.012. In addition, in assay [2] (setting [12]), the “Complete Media” value is given as 0.8266.

`CCn1cc(C(=O)O)c(=O)c2cc(F)c(N3CCNCC3)cc21` [Norfloxacin] showed a Cholesterol-free in assay [1] (setting [14]) of 1.043. The compound also showed a Complete in assay [1] (setting [15]) of 1.123. The Difference in assay [1] (setting [23]) is 0.08; in assay [2] (setting [8]), −0.30. Besides, the “Cholesterol-free media + simvastatin (0.04 μM)” value in assay [2] (setting [6]) worked out at 1.696. The “Complete Media” value in assay [2] (setting [7]) was found to be 1.396.

For the compound `CCN(CC)C(=O)/C(C#N)=C/c1cc(O)c(O)c([N+](=O)[O-])c1` [Entacapone], the Cholesterol-free in assay [1] (setting [14]) is 0.7629. In assay [1] (setting [15]), this compound gave a Complete of 0.9193. The Difference in assay [1] (setting [23]) is given as 0.16; in assay [2] (setting [8]) it was −0.14. Also, in assay [2] (setting [16]), the “Cholesterol-free media + simvastatin (0.04 μM)” value was determined as 1.719. Also, in assay [2] (setting [5]), the “Complete Media” value turned out to be 1.579.

Regarding Ketanserin (tartrate), the Difference in assay [1] (setting [13]) is on record as 0.03; in assay [2] (setting [8]), −0.22. Besides, the Cholesterol-free in assay [1] (setting [14]) was 0.9853. In assay [1] (setting [15]), this compound displayed a Complete of 1.019. Further, the “Cholesterol-free media + simvastatin (0.04 μM)” value in assay [2] (setting [11]) is 1.267.

For `[H]/N=C(/N)NS(=O)(=O)c1ccc(N)cc1` [Sulfaguanidine], the figures for the Difference in assay [1] (setting [13]) and in assay [2] (setting [8]) were −0.24 and −0.21, respectively. Further, the Cholesterol-free in assay [1] (setting [9]) is recorded as 1.183. The same compound displayed a Complete in assay [1] (NCI-H292 cells, complete media) of 0.939. The “Cholesterol-free media + simvastatin (0.04 μM)” value in assay [2] (setting [11]) turned out to be 1.092. Besides, in assay [2] (setting [12]), the “Complete Media” value is 0.8866.

In the case of `O=C(O)COCCN1CCN([C@H](c2ccccc2)c2ccc(Cl)cc2)CC1` [Levocetirizine (dihydrochloride)], the Difference in assay [1] (setting [13]) is on record as 0.02; in assay [2] (setting [8]) it was −0.26. Also, the Cholesterol-free in assay [1] (setting [14]) turned out to be 0.8691. Also, the Complete in assay [1] (setting [15]) was 0.8901. Moreover, the “Cholesterol-free media + simvastatin (0.04 μM)” value in assay [2] (setting [11]) is on record as 1.115. Moreover, in assay [2] (setting [12]), the “Complete Media” value was 0.8515.

Compound `Nc1c(CC(=O)O)cccc1C(=O)c1ccc(Br)cc1` [Bromfenac (sodium hydrate)] showed a Cholesterol-free in assay [1] (setting [9]) of 1.074. In assay [1] (NCI-H292 cells, complete media), this compound had a Complete of 0.716. The Difference in assay [1] (setting [10]) was −0.36; in assay [2] (setting [17]), 0.16. Besides, in assay [2] (setting [16]), the “Cholesterol-free media + simvastatin (0.04 μM)” value is listed as 1.132. In addition, the “Complete Media” value in assay [2] (setting [5]) worked out at 1.293.

In assay [1], `O=C([O-])c1ccccc1O.[Na+]` [Sodium Salicylate] yielded a Cholesterol-free of 1.153, a Complete of 0.943 and a Difference of −0.21. Further, in assay [2], the “Cholesterol-free media + simvastatin (0.04 μM)” value stood at 1.29, the “Complete Media” value turned out to be 1.045 and the Difference was −0.24.

For `c1cnc2cc3c(cc2n1)[C@@H]1CNC[C@H]3C1` [Varenicline (Hydrochloride)], the Difference in assay [1] (setting [13]) is −0.20; in assay [2] (setting [8]) it was −0.21. Moreover, the Cholesterol-free in assay [1] (setting [9]) came to 1.095. Also, the Complete in assay [1] (NCI-H292 cells, complete media) was 0.8911. Moreover, in assay [2] (setting [11]), the “Cholesterol-free media + simvastatin (0.04 μM)” value was found to be 1.193. Further, in assay [2] (setting [12]), the “Complete Media” value is 0.9876.

Regarding `CC(=O)N1C[C@H](O)C[C@H]1C(=O)O` [Oxaceprol], the Difference is given as −0.27 in assay [1] (setting [13]) and −0.02 in assay [2] (complete media minus cholesterol-free media + simvastatin (0.04 μM), >0 enhanced anti-cancer activity, about 0 neutral, <0 antagonist). In assay [1] (setting [9]), the Cholesterol-free was 0.9566. For the same compound, the Complete in assay [1] (NCI-H292 cells, complete media) came out at 0.6838. Further, the “Cholesterol-free media + simvastatin (0.04 μM)” value in assay [2] (setting [18]) stood at 0.8786. The “Complete Media” value in assay [2] (setting [19]) is 0.8552.

Regarding `Cc1nc(Nc2ncc(C(=O)Nc3c(C)cccc3Cl)s2)cc(N2CCN(CCO)CC2)n1` [Dasatinib], the figures for the Difference in assay [1] (setting [3]) and in assay [2] (setting [17]) were −0.15 and 0.19, respectively. The compound also registered a Cholesterol-free in assay [1] (setting [4]) of 0.4806. Also, in assay [1] (setting [5]), the Complete is 0.3333. Besides, the “Cholesterol-free media + simvastatin (0.04 μM)” value in assay [2] (setting [16]) is 0.3286. In addition, the “Complete Media” value in assay [2] (setting [5]) was 0.514.

For the compound `CC1(C)NC(=O)N(c2ccc([N+](=O)[O-])c(C(F)(F)F)c2)C1=O` [Nilutamide], the Difference in assay [1] (setting [20]) is reported as −0.63; in assay [2] (setting [8]), −0.47. In assay [1] (setting [21]), this compound came in with a Cholesterol-free of 1.565. Besides, in assay [1] (setting [22]), the Complete is on record as 0.9342. Also, in assay [2] (setting [6]), the “Cholesterol-free media + simvastatin (0.04 μM)” value is recorded as 1.474. The “Complete Media” value in assay [2] (setting [7]) was found to be 1.003.
